Laboratory results taken from ChEMBL document CHEMBL1201862, “PubChem BioAssay data set” (2004).
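Grown in 96-well plates, cells were treated for 48 hours with each compound at five concentrations. Insufficient inhibition: endpoint recorded as highest concentration tested. At the GI50, growth is halved.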 Activity calls are given as the source filed them. Cut-off read from the data, not from the text of the source: active = GI50 up to about 1.1 µM and inactive = higher.

How the values were obtained:
Assay in all cases: DTP human tumour cell line panel, 48 h
786-0 = tested on: 786-0
A498 = tested on: A498
A549 = tested on: A549
ACHN = tested on: ACHN
BT-549 = tested on: BT-549
CAKI-1 = tested on: CAKI-1
CCRF-CEM = tested on: CCRF-CEM
COLO 205 = tested on: COLO 205
DU-145 = tested on: DU-145
EKVX = tested on: EKVX
HCC 2998 = tested on: HCC 2998
HCT-116 = tested on: HCT-116
HCT-15 = tested on: HCT-15
HL-60 = tested on: HL-60
HOP-92 = tested on: HOP-92
HT-29 = tested on: HT-29
Hs-578T = tested on: Hs-578T
IGROV-1 = tested on: IGROV-1
K562 = tested on: K562
KM12 = tested on: KM12
M14 = tested on: M14
MCF7 = tested on: MCF7
MDA-MB-231 = tested on: MDA-MB-231
MDA-MB-435 = tested on: MDA-MB-435
MDA-N = tested on: MDA-N
MOLT-4 = tested on: MOLT-4
Malme-3M = tested on: Malme-3M
NCI-H226 = tested on: NCI-H226
NCI-H23 = tested on: NCI-H23
NCI-H460 = tested on: NCI-H460
NCI-H522 = tested on: NCI-H522
NCI/ADR-RES = tested on: NCI/ADR-RES
OVCAR-3 = tested on: OVCAR-3
OVCAR-4 = tested on: OVCAR-4
OVCAR-5 = tested on: OVCAR-5
OVCAR-8 = tested on: OVCAR-8
PC-3 = tested on: PC-3
RPMI-8226 = tested on: RPMI-8226
RXF 393 = tested on: RXF 393
SF-268 = tested on: SF-268
SF-295 = tested on: SF-295
SF-539 = tested on: SF-539
SK-MEL-28 = tested on: SK-MEL-28
SK-MEL-2 = tested on: SK-MEL-2
SK-MEL-5 = tested on: SK-MEL-5
SK-OV-3 = tested on: SK-OV-3
SN12C = tested on: SN12C
SNB-19 = tested on: SNB-19
SNB-75 = tested on: SNB-75
SR = tested on: SR
SW-620 = tested on: SW-620
T47D = tested on: T47D
TK-10 = tested on: TK-10
U-251 = tested on: U-251
UACC-257 = tested on: UACC-257
UACC-62 = tested on: UACC-62
UO-31 = tested on: UO-31
HOP-62 = tested on: HOP-62
LOX IMVI = tested on: LOX IMVI

Measured: GI50

COC(=O)c1c(C#C[Si](C)(C)C)c(C#C[Si](C)(C)C)c(C#C[Si](C)(C)C)c(C#C[Si](C)(C)C)c1C(=O)OC
> 100 µM: HCT-15
inactive: 786-0 > 100 µM | A498 > 100 µM | A549 > 100 µM | ACHN > 100 µM | BT-549 > 100 µM | CAKI-1 > 100 µM | CCRF-CEM > 100 µM | COLO 205 > 100 µM | DU-145 > 100 µM | EKVX > 100 µM | HCC 2998 > 100 µM | HCT-116 > 100 µM | HL-60 > 100 µM | HOP-92 > 100 µM | HT-29 > 100 µM | Hs-578T > 100 µM | IGROV-1 > 100 µM | K562 > 100 µM | KM12 > 100 µM | M14 > 100 µM | MCF7 > 100 µM | MDA-MB-231 > 100 µM | MDA-MB-435 > 100 µM | MDA-N > 100 µM | MOLT-4 > 100 µM | Malme-3M > 100 µM | NCI-H226 > 100 µM | NCI-H23 > 100 µM | NCI-H460 > 100 µM | NCI-H522 > 100 µM | NCI/ADR-RES > 100 µM | OVCAR-3 > 100 µM | OVCAR-4 > 100 µM | OVCAR-5 > 100 µM | OVCAR-8 > 100 µM | PC-3 > 100 µM | RPMI-8226 > 100 µM | RXF 393 > 100 µM | SF-268 > 100 µM | SF-295 > 100 µM | SF-539 > 100 µM | SK-MEL-28 > 100 µM | SK-MEL-2 > 100 µM | SK-MEL-5 > 100 µM | SK-OV-3 > 100 µM | SN12C > 100 µM | SNB-19 > 100 µM | SNB-75 > 100 µM | SR > 100 µM | SW-620 > 100 µM | T47D > 100 µM | TK-10 > 100 µM | U-251 > 100 µM | UACC-257 > 100 µM | UACC-62 > 100 µM | UO-31 > 100 µM

O=C1CCCC2=C1CC1=C(CCCC1=O)N2c1ccc(-c2ccccc2)cc1
> 100 µM: HCT-15
inactive: 786-0 > 69.7 µM | A498 > 100 µM | A549 > 100 µM | ACHN > 100 µM | BT-549 > 40 µM | CAKI-1 > 100 µM | CCRF-CEM > 100 µM | COLO 205 > 100 µM | DU-145 > 100 µM | EKVX > 100 µM | HCC 2998 > 100 µM | HCT-116 > 100 µM | HL-60 > 29.6 µM | HOP-62 > 100 µM | HOP-92 > 75.3 µM | HT-29 > 100 µM | Hs-578T 43.2 µM | IGROV-1 > 100 µM | K562 > 100 µM | KM12 > 100 µM | LOX IMVI > 100 µM | M14 > 100 µM | MCF7 > 100 µM | MDA-MB-231 > 100 µM | MDA-MB-435 > 100 µM | MDA-N > 100 µM | MOLT-4 > 100 µM | Malme-3M > 100 µM | NCI-H226 > 100 µM | NCI-H23 > 100 µM | NCI-H460 > 100 µM | NCI-H522 > 100 µM | NCI/ADR-RES > 100 µM | OVCAR-3 > 100 µM | OVCAR-4 > 100 µM | OVCAR-5 > 100 µM | OVCAR-8 > 100 µM | PC-3 > 100 µM | RPMI-8226 > 100 µM | RXF 393 > 24.6 µM | SF-268 > 63.5 µM | SF-295 > 100 µM | SF-539 > 72.6 µM | SK-MEL-28 > 100 µM | SK-MEL-2 > 100 µM | SK-MEL-5 > 100 µM | SK-OV-3 > 76.9 µM | SN12C > 100 µM | SNB-19 > 63.2 µM | SNB-75 > 47.4 µM | SR > 100 µM | SW-620 > 100 µM | T47D > 100 µM | TK-10 > 75 µM | U-251 > 75 µM | UACC-257 > 100 µM | UACC-62 > 66.5 µM | UO-31 > 100 µM

CC1(C)OCC([C@H]2O[C@@H](CC(=S)NCCCCCCCCCCCCNC(=S)C[C@H]3O[C@@H](C4COC(C)(C)O4)[C@H]4OC(C)(C)O[C@H]43)[C@H]3OC(C)(C)O[C@H]32)O1 (stereo partly drawn)
inactive: 786-0 83.8 µM | A498 11.9 µM | A549 14.7 µM | ACHN 49.3 µM | BT-549 35 µM | CAKI-1 17.5 µM | DU-145 > 100 µM | EKVX 49.9 µM | HCC 2998 75.7 µM | HCT-116 35.7 µM | HL-60 30.4 µM | HOP-62 > 100 µM | HOP-92 > 100 µM | HT-29 45.7 µM | Hs-578T > 100 µM | IGROV-1 > 100 µM | K562 39.4 µM | KM12 48.6 µM | LOX IMVI 79.1 µM | M14 52.5 µM | MCF7 24.4 µM | MDA-MB-231 > 100 µM | MDA-MB-435 70.8 µM | MDA-N 58.5 µM | MOLT-4 15.8 µM | NCI-H226 > 100 µM | NCI-H23 30.7 µM | NCI-H460 25.6 µM | NCI-H522 45.3 µM | NCI/ADR-RES 25.9 µM | OVCAR-3 74.5 µM | OVCAR-4 43.3 µM | OVCAR-5 > 100 µM | OVCAR-8 53.5 µM | PC-3 25.5 µM | RPMI-8226 15.7 µM | RXF 393 > 100 µM | SF-268 > 100 µM | SF-295 31.6 µM | SF-539 57.9 µM | SK-MEL-28 > 100 µM | SK-MEL-2 58.5 µM | SK-MEL-5 23.7 µM | SNB-75 > 100 µM | SR 34.8 µM | SW-620 > 100 µM | T47D 19.2 µM | TK-10 > 100 µM | U-251 35 µM | UACC-257 42.5 µM | UO-31 19 µM
73.1 µM: HCT-15
